Patent US4443452A, “Dibenzodiazepinones, pharmaceutical compositions thereof and method of use thereof” (Dr. Karl Thomae GmbH, priority 1982, dated 1984)

Columns and labels:
[1] = test system: muscarinic receptors (oxotremorine-induced lesions in the mucous membrane of the stomach); assay: Oxotremorine test: lesions in the mucous membrane of the stomach (anti-ulcerative effect); format: in vivo, female albino rats (Crl:COBS-CD (SD) BR strain); conditions: iv; rat, test substance i.v. 15 minutes before oxotremorine 0.62 mg/kg i.v.; neostigmine 1 mg/kg oral
Protocol: (§1) Oxotremorine, a specific against for muscarinic receptors produces lesions in the mucous membrane of the stomach in rats and increases their secretion of saliva. This test method was chosen so that any selective activity of an antimuscarinic substance on the stomach could be identified.
(§2) Ten female albino rats (of the Crl:COBS-CD (SD) BR strain) with a body weight of from 120 to 150 gm apiece were used in each treatment group and were kept without food for 24 hours before the start of the test but given free access to drinking water.
(§3) To determine, in preliminary tests, the muscarinic effect of oxotremorine on each of the symptons studies, a dosage/activity curve was drawn up with at least three dosages for each symptom.
(§4) When the antimuscarinic substances were tested, the dosage of oxotremorine which triggered the symptom in question in 90 to 100% of the animals in the preliminary tests was used.
Lesions in the mucous membrane of stomach: 0.62 mg/kg i.v.
(§5) Each antimuscarinic substance was administered intravenously in uniformly graduated doses 15 minutes before the oxotremorine was administered. Control groups were given corresponding quantities of the solvent and suspension agent instead of the test substance. Immediately after the oxotremorine was administered, the animals were placed in a glass case for 15 minutes and observed.
The effects on lesions of the nucous membrane of the stomach were evaluated as follows:
The lesions of the gastric mucous membrane were produced by intravenous injection of 0.62 mg/kg of oxotremorine 30 minutes after the oral administration of 1 mg/kg of neostigmine (a cholinesterase inhibitor). Sixty minutes after the administration of the neostigmine, the animals were killed, and the stomachs were removed, opened, and examined for the presence of any lesions in the mucous membrane. The protective effect of the test substances was expressed as the percentage inhibition (percentage of animals with lesions).
The ED50 and ED70 values were determined using the method of LITCHFIELD and WILCOXON (eee above).

[2] = biological target: muscarinic receptors (cerebral cortex); assay: Binding to muscarinic receptors, 3H-N-methylscopolamine displacement, cerebral cortex; parameters: species or system male Sprague-Dawley rats; conditions: cerebral cortex homogenate 1:3000; 0.3 n molar 3H-N-methylscopolamine; 30° C., 45 minutes; pH 7.4; read-out: Receptor binding tests IC50, Cortex
Protocol: (§6) 3. STUDIES OF BINDING TO MUSCARINIC RECEPTORS: DETERMINATION OF THE IC50 VALUES
(§7) The organ donors were male Sprague-Dawley rats with a body weight of from about 180 to 220 gm each. After the heart, stomach, and cerebral cortex had been removed, the remainder of the operation was carried out in ice-cold Hepes-HCl buffer (pH 7.4; 100 m molar NaCl, 10 m molar MgCl2). The smooth muscle of the fundus of the stomach was separated from the mucous membrane of the stomach and subjected to preliminary homogenization. The whole heart was cut up with scissors. All the organs were then homogenized in a Potter apparatus.
(§8) For the binding test, the homogenized organs were diluted as follows:
(§9) The homogenized organ preparations were incubated at a specific concentration of the radioligand and with a series of concentrations of the non-radioactive test substances in an Eppendorf centrifuge tube at 30° C. The duration of incubation was 45 minutes. As substance 0.3 n molar ^3 H-N-methylscopolamine (^3 H-NMS) was used as the radioligand. After incubation had been brought to an end by centrifuging at 14000 g, the radioactivity in the pellet was determined. It represents the sum of the specific and non-specific binding of ^3 H-NMS. The proportion of non-specific binding was defined as the radioactivity which was bound in the presence of 1μ molar quinuclidinylbenzylate. Four measurements were taken in each case. The IC50 values of the non-labelled test substances were determined graphically. They represent the concentration of test substance at which the specific binding of ^3 H-NMS to the muscarinic receptors in the various organs was inhibited by 50%.

[3] = biological target: T1, muscarinic receptors (whole heart) (Rattus norvegicus, UniProt P10980); assay: Binding to muscarinic receptors, 3H-N-methylscopolamine displacement, whole heart; parameters: species or system male Sprague-Dawley rats; conditions: whole heart homogenate 1:250; 0.3 n molar 3H-N-methylscopolamine; 30° C., 45 minutes; pH 7.4; read-out: Receptor binding tests IC50, Heart
T1 construct: from tissue; host or cells: whole heart of male Sprague-Dawley rats, homogenate
T1 sequence (P10980 1-466): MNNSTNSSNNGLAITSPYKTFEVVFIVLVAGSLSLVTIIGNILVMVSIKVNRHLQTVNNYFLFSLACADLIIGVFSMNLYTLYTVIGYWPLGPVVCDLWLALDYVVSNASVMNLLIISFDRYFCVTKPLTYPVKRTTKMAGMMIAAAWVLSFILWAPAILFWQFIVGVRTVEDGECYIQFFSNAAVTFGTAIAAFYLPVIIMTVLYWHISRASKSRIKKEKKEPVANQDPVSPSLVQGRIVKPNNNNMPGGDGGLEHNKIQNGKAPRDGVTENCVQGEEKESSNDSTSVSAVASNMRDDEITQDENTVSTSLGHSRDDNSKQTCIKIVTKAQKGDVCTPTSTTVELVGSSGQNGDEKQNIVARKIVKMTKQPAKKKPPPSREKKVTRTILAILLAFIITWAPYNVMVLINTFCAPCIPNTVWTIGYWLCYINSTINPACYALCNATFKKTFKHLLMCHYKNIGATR
Protocol: as §6, §7, §8
as §9, with “It represents the sum of the specific and non-specific binding of ^3 H-NMS.” left out, “Four measurements were taken in each case.” left out, “They represent the concentration of test substance at which the specific binding of ^3 H-NMS to the muscarinic receptors in the various organs was inhibited by 50%.” left out

[4] = test system: muscarinic receptors (oxotremorine-induced secretion of saliva); assay: Oxotremorine test: inhibition of salivation; format: in vivo, female albino rats (Crl:COBS-CD (SD) BR strain); conditions: iv, 0.25 h; rat, test substance i.v. 15 minutes before oxotremorine 0.083 mg/kg i.v.; blind test
Protocol: as §1, §2, §3, §4
Secretion of saliva: 0.083 mg/kg i.v.
as §5
The ED50 values were determined using the method described by LITCHFIELD and WILCOXON (J. Pharmacol. Exp. Ther. 96, 99, 1949).

[5] = biological target: muscarinic receptors (smooth muscle of the fundus of the stomach); assay: Binding to muscarinic receptors, 3H-N-methylscopolamine displacement, smooth muscle of fundus of stomach; parameters: species or system male Sprague-Dawley rats; conditions: smooth muscle of fundus homogenate 1:100; 0.3 n molar 3H-N-methylscopolamine; 30° C., 45 minutes; pH 7.4; read-out: Receptor binding tests IC50, Smooth Muscle Fundus of Stomach
Protocol: as §6, §7, §8
Smooth muscle of the fundus of the stomach: 1:100
as §9

Testing for mydriasis = assay: Testing for mydriasis; parameters: species or system rats; conditions: in vivo, iv; rat; pupil size observed for 10 minutes; blind test
Protocol: The effect of the test substances on the pupil size in rats was investigated as follows:
The substances were administered intravenously to groups of 10 animals in at least three uniformly graduated doses.

SMILES	ED50 [1] [mg/kg]	ED70 [1] [mg/kg]	IC50 [2] [nM]	IC50 [3] [nM]	ED50 [4] [mg/kg]	IC50 [5] [nM]	ED50 at 10 min (Testing for mydriasis) [mg/kg]
CN1CCC(OC(=O)N2c3ccccc3NC(=O)c3ccccc32)CC1 [A]	0.0155	0.036	5.5	42	0.064	60	0.071
CN1CCC(NC(=O)N2c3ccccc3NC(=O)c3ccccc32)CC1 [B]	0.0025	0.0048	13	75	0.022	100	0.023
CN1CCN(NC(=O)N2c3ccccc3NC(=O)c3ccccc32)CC1 [C]	0.0036	0.007	18		0.032	90	0.0825
